Data on 1 compound can be found in paper PMC7881127, “Cholesterol as a modulator of cannabinoid receptor CB2 signaling” (Scientific Reports, 2021).

The structures appear in SMILES notation.

For this assay, the target named is T1, hCB2 (Homo sapiens, UniProt P34972).
T1 construct: purchased PerkinElmer ES111-M400UA; host or cells: CHO-K1 cells stably transfected
The assay is described as follows: [35S]GTPγS binding assay in hCB2-CHO-K1 cell membranes. It counts as biochemical. The method, then: Figure 2 Affinity and functional effects of novel MRI ligands on CB2 receptor in CHO cell membranes. (a) binding affinities (nM) and Emax (% and nM) of [^35S]-GTPγS binding to CHO membranes (PerkinElmer, Cat. No ES111-M400UA) expressing hCB2. (b) [^35S]-GTPγS binding to membranes as a factor of ligand concentration. Binding of [^35S]-GTPγS was determined as described in “Methods”. Non-specific binding was defined as 0% activity. The assay of GTPγS non-specific binding contains non-radioactive GTPγS.
[^35S] GTPγS binding was assayed as described earlier[65] with slight modifications. Briefly, hCB2-CHO-K1 cell membranes (4 µg) were incubated with 0.05 nM [^35S] GTPγS, and the indicated concentrations of ligands in TEM buffer (50 mM Tris–HCl, 0.2 mM EGTA, and 9 mM MgCl2, pH 7.4) containing 100 µM GDP, 150 mM NaCl, and 0.1% (w/v) bovine serum albumin in a total volume of 1 ml for 60 min at 30 °C.

T1 sequence (P34972 whole entry): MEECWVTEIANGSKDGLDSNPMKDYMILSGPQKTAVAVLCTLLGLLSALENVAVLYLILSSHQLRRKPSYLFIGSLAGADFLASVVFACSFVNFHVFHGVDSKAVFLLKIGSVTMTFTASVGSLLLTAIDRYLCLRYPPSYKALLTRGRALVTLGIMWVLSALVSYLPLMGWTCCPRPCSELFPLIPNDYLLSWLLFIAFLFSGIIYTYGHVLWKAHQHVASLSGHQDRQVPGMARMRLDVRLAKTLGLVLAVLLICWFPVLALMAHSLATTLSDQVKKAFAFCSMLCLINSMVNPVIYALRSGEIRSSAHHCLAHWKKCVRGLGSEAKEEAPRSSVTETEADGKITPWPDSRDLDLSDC

`CC(=O)OCCn1c(=NC(=O)C2C(C)(C)C2(C)C)sc2cc(Cl)ccc21` [MRI-2646, 2-(6-Chloro-2-((2,2,3,3-tetramethylcyclopropane-1-carbonyl)imino)benzo[d]thiazol-3(2H)-yl)ethyl acetate]: the Emax (CHO membranes expressing hCB2 (PerkinElmer ES111-M400UA), read-out: GTPγS binding Emax) is -2 ± 4%. Further, the “Functional effect on G-protein signaling (pharmacological category)” value (hCB2-expressing CHO cell membranes (PerkinElmer)) is on record as “no effect on basal signaling”.
